Data from US6737383B1, “Herbicidal oxadiazolidines” (priority 1999, dated 2004).

Key:
bedstraw = assay: Test B pre/postemergence bedstraw; assay type: in vivo, Galium aparine
Summary of the method: (§1)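 Herbicidal effect was estimated by eye on a ten-point control scale after plants spent twelve to sixteen days in a greenhouse following soil or foliar treatment. Foliar sprays targeted plants at one to four leaves; all doses were formulated in a non-phytotoxic solvent with surfactant.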

blackgrass = assay: Test B pre/postemergence blackgrass; assay type: in vivo, Alopecurus myosuroides
Summary of the method: as §1

surinam grass = assay: Test B pre/postemergence surinam grass; assay type: in vivo, Brachiaria decumbens
Summary of the method: as §1

cocklebur = assay: Test B pre/postemergence cocklebur; assay type: in vivo, Xanthium strumarium
Summary of the method: as §1

corn = assay: Test B pre/postemergence corn; assay type: in vivo, Zea mays
Summary of the method: as §1

crabgrass = assay: Test B pre/postemergence crabgrass; assay type: in vivo, Digitaria sanguinalis
Summary of the method: as §1

giant foxtail = assay: Test B pre/postemergence giant foxtail; assay type: in vivo, Setaria faberii
Summary of the method: as §1

morningglory = assay: Test B pre/postemergence morningglory; assay type: in vivo, Ipomoea hederacea
Summary of the method: as §1

pigweed = assay: Test B pre/postemergence pigweed; assay type: in vivo, Amaranthus retroflexus
Summary of the method: as §1

soybean = assay: Test B pre/postemergence soybean; assay type: in vivo, Glycine max
Summary of the method: as §1

velvetleaf = assay: Test B pre/postemergence velvetleaf; assay type: in vivo, Abutilon theophrasti
Summary of the method: as §1

wheat = assay: Test B pre/postemergence wheat; assay type: in vivo, Triticum aestivum
Summary of the method: as §1

wild oat = assay: Test B pre/postemergence wild oat; assay type: in vivo, Avena fatua
Summary of the method: as §1

rice = assay: Test B flood test rice; assay type: in vivo, Oryza sativa
Summary of the method: (§2)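 Read-out is a visual response score from 0 (no effect) to 10 (complete control), assigned by comparison with untreated controls. Treatment was applied at the 2-leaf stage, and plants stayed in the greenhouse for twelve to sixteen days before scoring.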

smallflower flatsedge = assay: Test B flood test smallflower flatsedge; assay type: in vivo, Cyperus difformis
Summary of the method: as §2

bamyardgrass = assay: Test B flood test barnyardgrass; assay type: in vivo, Echinochloa crus-galli
Summary of the method: as §2

[1] = Preemergence, Rate 62 g/ha, scale of 0 to 10 where 0 is no effect and 10 is complete control
[2] = Preemergence, Rate 125 g/ha, 0 is no effect, 10 is complete control
[3] = Preemergence, Rate 250 g/ha, scale 0 to 10, 0 is no effect, 10 is complete control
[4] = Preemergence, Rate 500 g/ha, scale 0 to 10 (0 no effect, 10 complete control)
[5] = Rate 62 g/ha, Postemergence, scale of 0 to 10 where 0 is no effect and 10 is complete control
[6] = Rate 125 g/ha, Postemergence, scale 0 to 10
[7] = Rate 500 g/ha, Postemergence, scale 0 to 10
[8] = Rate 62 g/ha, headed Pre-emergence (flood test species), scale 0 to 10 (0 no effect, 10 complete control)
[9] = Rate 125 g/ha, Pre-emergence, flood test species, scale 0 to 10 where 0 is no effect and 10 is complete control
[10] = Rate 250 g/ha, Pre-emergence, flood-test species, scale 0 to 10, 0 is no effect, 10 is complete control
[11] = Rate 500 g/ha, headed Pre-emergence (flood test species), scale 0 to 10 (0 no effect, 10 complete control)

Cc1nc(C)c(Cn2c(=O)on(C(=O)N(c3ccc(F)cc3)C(C)C)c2=O)s1 [Compound 192]
Bedstraw plant response rating (bedstraw; [1]): 0 | Bedstraw plant response rating (0 to 10 scale) (bedstraw; [2]): 0 | Bedstraw plant response rating (bedstraw; [3]): 0 | Bedstraw plant response rating (bedstraw; [4]): 0 | Bedstraw plant response rating (bedstraw; [5]): 0 | Bedstraw plant response rating (bedstraw; [6]): 0 | Plant response rating (0 to 10; 0 is no effect, 10 is complete control), Bedstraw (bedstraw; Rate 250 g/ha, Postemergence): 0 | Bedstraw plant response rating (bedstraw; [7]): 0 | Blackgrass plant response rating (blackgrass; [1]): 5 | Blackgrass plant response rating (0 to 10 scale) (blackgrass; [2]): 5 | Blackgrass plant response rating (blackgrass; [3]): 6 | Blackgrass plant response rating (blackgrass; [4]): 7 | Blackgrass plant response rating (blackgrass; [5]): 0 | Blackgrass plant response rating (blackgrass; [6]): 0 | Plant response rating (0 to 10; 0 is no effect, 10 is complete control), Blackgrass (blackgrass; Rate 250 g/ha, Postemergence): 0 | B. signalgrass plant response rating (surinam grass; [1]): 0 | B. signalgrass plant response rating (0 to 10 scale) (surinam grass; [2]): 0 | B. signalgrass plant response rating (surinam grass; [3]): 6 | B. signalgrass plant response rating (surinam grass; [4]): 6 | B. signalgrass plant response rating (surinam grass; [5]): 0 | B. signalgrass plant response rating (surinam grass; Rate 125 g/ha, Postemergence, scale 0 (no effect) to 10 (complete control)): 0 | Plant response rating, B. signalgrass (surinam grass; Rate 250 g/ha, Postemergence, scale 0 to 10, 0 is no effect, 10 is complete control): 0 | B. signalgrass plant response rating (surinam grass; Rate 500 g/ha, Postemergence, scale 0 to 10, 0 no effect, 10 complete control): 2 | Cocklebur plant response rating (cocklebur; [1]): 0 | Cocklebur plant response rating (0 to 10 scale) (cocklebur; [2]): 0 | Cocklebur plant response rating (cocklebur; [3]): 0 | Cocklebur plant response rating (cocklebur; [4]): 0 | Cocklebur plant response rating (cocklebur; [5]): 0 | Cocklebur plant response rating (cocklebur; [6]): 1 | Plant response rating (0 to 10; 0 is no effect, 10 is complete control), Cocklebur (cocklebur; Rate 250 g/ha, Postemergence): 2 | Cocklebur plant response rating (cocklebur; [7]): 5 | Corn plant response rating (corn; [1]): 0 | Corn plant response rating (0 to 10 scale) (corn; [2]): 0 | Corn plant response rating (corn; [3]): 0 | Corn plant response rating (corn; [4]): 4 | Corn plant response rating (corn; [5]): 0 | Corn plant response rating (corn; [6]): 0 | Plant response rating (0 to 10; 0 is no effect, 10 is complete control), Corn (corn; Rate 250 g/ha, Postemergence): 0 | Corn plant response rating (corn; [7]): 0 | Crabgrass plant response rating (crabgrass; [1]): 2 | Crabgrass plant response rating (0 to 10 scale) (crabgrass; [2]): 6 | Crabgrass plant response rating (crabgrass; [3]): 7 | Crabgrass plant response rating (crabgrass; [4]): 9 | Crabgrass plant response rating (crabgrass; [5]): 1 | Crabgrass plant response rating (crabgrass; [6]): 1 | Plant response rating (0 to 10; 0 is no effect, 10 is complete control), Crabgrass (crabgrass; Rate 250 g/ha, Postemergence): 1 | Crabgrass plant response rating (crabgrass; [7]): 2 | Giant foxtail plant response rating (giant foxtail; [1]): 8 | Giant foxtail plant response rating (0 to 10 scale) (giant foxtail; [2]): 9 | Giant foxtail plant response rating (giant foxtail; [3]): 10 | Giant foxtail plant response rating (giant foxtail; [4]): 10 | Giant foxtail plant response rating (giant foxtail; [5]): 0 | Giant foxtail plant response rating (giant foxtail; [6]): 0 | Plant response rating (0 to 10; 0 is no effect, 10 is complete control), Giant foxtail (giant foxtail; Rate 250 g/ha, Postemergence): 0 | Giant foxtail plant response rating (giant foxtail; [7]): 1 | Morningglory plant response rating (morningglory; [1]): 0 | Morningglory plant response rating (0 to 10 scale) (morningglory; [2]): 0 | Morningglory plant response rating (morningglory; [3]): 0 | Morningglory plant response rating (morningglory; [4]): 3 | Morningglory plant response rating (morningglory; [5]): 1 | Morningglory plant response rating (morningglory; [6]): 3 | Plant response rating (0 to 10; 0 is no effect, 10 is complete control), Morningglory (morningglory; Rate 250 g/ha, Postemergence): 6 | Morningglory plant response rating (morningglory; [7]): 6 | Redroot pigweed plant response rating (pigweed; [1]): 0 | Redroot pigweed plant response rating (0 to 10 scale) (pigweed; [2]): 2 | Redroot pigweed plant response rating (pigweed; [3]): 5 | Redroot pigweed plant response rating (pigweed; [4]): 9 | Redroot pigweed plant response rating (pigweed; [5]): 0 | Redroot pigweed plant response rating (pigweed; [6]): 1 | Plant response rating (0 to 10; 0 is no effect, 10 is complete control), Redroot pigweed (pigweed; Rate 250 g/ha, Postemergence): 3 | Redroot pigweed plant response rating (pigweed; [7]): 7 | Soybean plant response rating (soybean; [1]): 0 | Soybean plant response rating (0 to 10 scale) (soybean; [2]): 0 | Soybean plant response rating (soybean; [3]): 2 | Soybean plant response rating (soybean; [4]): 2 | Soybean plant response rating (soybean; [5]): 3 | Soybean plant response rating (soybean; [6]): 3 | Plant response rating (0 to 10; 0 is no effect, 10 is complete control), Soybean (soybean; Rate 250 g/ha, Postemergence): 3 | Soybean plant response rating (soybean; [7]): 3 | Velvetleaf plant response rating (velvetleaf; [1]): 0 | Velvetleaf plant response rating (velvetleaf; [3]): 5 | Velvetleaf plant response rating (velvetleaf; [4]): 6 | Velvetleaf plant response rating (velvetleaf; [5]): 0 | Velvetleaf plant response rating (velvetleaf; [6]): 2 | Plant response rating (0 to 10; 0 is no effect, 10 is complete control), Velvetleaf (velvetleaf; Rate 250 g/ha, Postemergence): 3 | Wheat plant response rating (wheat; [1]): 0 | Wheat plant response rating (wheat; [3]): 0 | Wheat plant response rating (wheat; [4]): 0 | Wheat plant response rating (wheat; [5]): 0 | Wheat plant response rating (wheat; [6]): 0 | Plant response rating (0 to 10; 0 is no effect, 10 is complete control), Wheat (wheat; Rate 250 g/ha, Postemergence): 0 | Wild oats plant response rating (wild oat; [1]): 0 | Wild oats plant response rating (wild oat; [3]): 5 | Wild oats plant response rating (wild oat; [4]): 7 | Wild oats plant response rating (wild oat; [5]): 0 | Wild oats plant response rating (wild oat; [6]): 0 | Plant response rating (0 to 10; 0 is no effect, 10 is complete control), Wild oats (wild oat; Rate 250 g/ha, Postemergence): 0 | Rice plant response rating (rice; [8]): 0 | Rice plant response rating (rice; [9]): 0 | Rice plant response rating (rice; [10]): 0 | Plant response rating, Rice (rice; [11]): 0 | S. Flatsedge plant response rating (smallflower flatsedge; [8]): 0 | S. Flatsedge plant response rating (smallflower flatsedge; [9]): 0 | S. Flatsedge plant response rating (smallflower flatsedge; [10]): 0 | S. Flatsedge plant response rating (smallflower flatsedge; Rate 500 g/ha, Pre-emergence, flood test species, scale 0 to 10 (0 no effect, 10 complete control)): 0 | Barnyardgrass plant response rating (bamyardgrass; [8]): 0 | Barnyardgrass plant response rating (bamyardgrass; [9]): 0 | Barnyardgrass plant response rating (bamyardgrass; [10]): 0 | Plant response rating, Barnyardgrass (bamyardgrass; [11]): 0
